Tests used:
[1] = target: GluN1 LBD; parameters: method as in PMID 12805203; conditions: cited from earlier work
[2] = system: parallel fiber EPSCs; conditions: inhibitory effect on parallel fiber EPSCs; read-out: apparent EC50; cited from earlier work
[3] = target: T1, GluN1-1a-(H)GluD2 with GluN2A (Rattus norvegicus, UniProt P35439, E751N/F753V/F754A/G537S/L752T/Q536Y/R755D/S756R/T749V/Y535D); test: Two-electrode voltage clamp in Xenopus oocytes, current response; format: cell-based; conditions: 100 μM glutamate plus 1 mM D-serine, n = 23
T1 construct: expressed in transfected cells; host or cells: Xenopus laevis oocytes injected with cRNA
Procedure: (§1) Oocytes were obtained by surgically removing parts of the ovaries from Xenopus laevis (Nasco, Fort Atkinson, WI, USA) anaesthetised with 1.5 g/L 3-aminobenzoic acid ethylester (Sigma, Taufkirchen, Germany). The ovary clippings were digested with 784 U/mL (4 mg/mL) collagenase type I (Worthington, Lakewood, NJ, USA) in Ca^2+-free Barth’s solution (88 mM NaCl, 1.1 mM KCl, 2.4 mM NaHCO3, 0.8 mM MgSO4, 15 mM HEPES-NaOH, pH 7.6) with gentle agitation for 1.5–2 h at 20 °C to remove the follicular cell layer. After stopping the collagenase digestion by washing with Barth’s solution (88 mM NaCl, 1.1 mM KCl, 2.4 mM NaHCO3, 0.3 mM Ca(NO3)2, 0.4 mM CaCl2, 0.8 mM MgSO4, 15 mM HEPES-NaOH, pH 7.6), defolliculated oocytes of stages V and VI were selected and maintained at 16 °C in Barth’s solution supplemented with 100 μg/mL gentamicin, 40 μg/mL streptomycin, and 63 μg/mL penicillin. Oocytes were injected with 11 ng cRNA (10 ng of each cRNA for co-expression of GluN1 and GluN2A) using a nanoliter injector (WPI, Sarasota, FL, USA). Four days after cRNA injection, current responses were recorded under voltage clamp at –70 mV with a Turbo Tec-10CD amplifier (npi electronic, Tamm, Germany) controlled by Patchmaster software (HEKA, Lambrecht, Germany). Currents were filtered with a 20 Hz low-pass filter and then digitised with a sampling rate of 50 Hz. Recording electrodes were pulled from borosilicate glass (Hilgenberg, Malsfeld, Germany) with an L/M-3P-A vertical pipette puller (List-Medical), filled with 3 M KCl, and had resistances of 0.5–5 MΩ (voltage electrode) or 0.5–1.5 MΩ (current electrode). Recordings were performed in a 50 μL chamber under constant superfusion with extracellular solution at a flow rate of 3–5 mL/min. […] Finally, Ba-NFR and then NMDGR were applied again to check for reversibility.

[4] = target: T2, GluD2-(H)GluN1 (Rattus norvegicus, UniProt Q63226, A766F/D542Y/D767R/N763E/R768S/S544G/T764L/V761T/V765F/Y543Q); test: as above; format: cell-based
T2 construct: have an effect on the function of full-length receptors as well; expressed in transfected cells; host or cells: Xenopus laevis oocytes injected with cRNA
T2 sequence (Q63226 24-1007 D542Y/Y543Q/S544G/V761T/N763E/T764L/V765F/A766F/D767R/R768S): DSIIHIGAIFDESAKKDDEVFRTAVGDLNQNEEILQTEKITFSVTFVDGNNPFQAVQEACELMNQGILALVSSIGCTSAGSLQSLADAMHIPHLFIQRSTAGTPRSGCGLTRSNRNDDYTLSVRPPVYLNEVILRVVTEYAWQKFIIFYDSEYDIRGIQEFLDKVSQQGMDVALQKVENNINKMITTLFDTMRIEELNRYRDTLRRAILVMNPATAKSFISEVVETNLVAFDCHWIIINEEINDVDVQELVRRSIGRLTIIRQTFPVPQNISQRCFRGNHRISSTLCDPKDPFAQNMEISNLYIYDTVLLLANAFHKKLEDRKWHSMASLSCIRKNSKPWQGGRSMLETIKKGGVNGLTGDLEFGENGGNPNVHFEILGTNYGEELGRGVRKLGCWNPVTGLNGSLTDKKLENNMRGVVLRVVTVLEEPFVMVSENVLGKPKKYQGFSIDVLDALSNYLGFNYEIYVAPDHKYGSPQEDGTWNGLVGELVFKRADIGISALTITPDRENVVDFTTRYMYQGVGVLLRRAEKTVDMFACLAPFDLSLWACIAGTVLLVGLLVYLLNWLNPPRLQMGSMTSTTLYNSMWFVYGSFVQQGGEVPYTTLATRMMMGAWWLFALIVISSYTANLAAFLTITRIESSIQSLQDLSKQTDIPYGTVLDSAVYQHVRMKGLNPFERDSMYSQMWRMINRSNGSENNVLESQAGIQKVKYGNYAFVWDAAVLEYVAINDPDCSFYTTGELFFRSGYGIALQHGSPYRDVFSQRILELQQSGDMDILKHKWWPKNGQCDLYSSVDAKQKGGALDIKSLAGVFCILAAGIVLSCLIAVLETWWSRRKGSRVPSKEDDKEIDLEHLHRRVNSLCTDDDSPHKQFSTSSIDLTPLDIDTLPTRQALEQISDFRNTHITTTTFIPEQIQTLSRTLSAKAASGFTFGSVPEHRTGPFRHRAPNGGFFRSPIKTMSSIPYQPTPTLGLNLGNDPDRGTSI
Procedure: as §1

[5] = target: GluN3B LBD; parameters: method as in PMID 18636091; conditions: cited from earlier work

SMILES: N[C@H](CO)C(=O)O [D-serine]
- Kd [1]: 7 µM
- EC50 [2]: 147 µM
- current response [3]: 5.8 ± 1.0 nA
- current response ([4]; 10 μM D-serine, n = 14): 1.1 ± 0.6 nA
- current response ([4]; 1 mM D-serine, n = 22): 2.3 ± 0.4 nA
- Kd [5]: 0.163 µM

From PMC5384001 (Scientific Reports, 2017)
